PubChem BioAssay (NCI)
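Cultured in 96-well plates, cells were exposed to test compound for 48 hours across five concentrations. Definition used: TGI = concentration required for complete inhibition of growth.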

Legend:
Experiment in all cases: growth of human tumour cells (NCI), 48 h
786-0 renal = system: 786-0 renal
A498 renal = system: A498 renal
A549 NSCLC = system: A549 NSCLC
ACHN renal = system: ACHN renal
CAKI-1 renal = system: CAKI-1 renal
CCRF-CEM leukemia = system: CCRF-CEM leukemia
COLO 205 colon = system: COLO 205 colon
DU-145 prostate = system: DU-145 prostate
EKVX NSCLC = system: EKVX NSCLC
HCC-2998 colon = system: HCC-2998 colon
HCT-116 colon = system: HCT-116 colon
HCT-15 colon = system: HCT-15 colon
HL-60(TB) leukemia = system: HL-60(TB) leukemia
HOP-62 NSCLC = system: HOP-62 NSCLC
HS 578T breast = system: HS 578T breast
HT29 colon = system: HT29 colon
IGROV1 ovarian = system: IGROV1 ovarian
K-562 leukemia = system: K-562 leukemia
KM12 colon = system: KM12 colon
LOX IMVI melanoma = system: LOX IMVI melanoma
M14 melanoma = system: M14 melanoma
MALME-3M melanoma = system: MALME-3M melanoma
MDA-MB-231 breast = system: MDA-MB-231 breast
MDA-MB-435 = system: MDA-MB-435
MDA-N = system: MDA-N
MOLT-4 leukemia = system: MOLT-4 leukemia
NCI-H226 lung = system: NCI-H226 lung
NCI-H23 lung = system: NCI-H23 lung
NCI-H460 lung = system: NCI-H460 lung
NCI-H522 lung = system: NCI-H522 lung
NCI/ADR-RES ovarian = system: NCI/ADR-RES ovarian
OVCAR-3 ovarian = system: OVCAR-3 ovarian
OVCAR-4 ovarian = system: OVCAR-4 ovarian
OVCAR-5 ovarian = system: OVCAR-5 ovarian
PC-3 prostate = system: PC-3 prostate
RPMI-8226 leukemia = system: RPMI-8226 leukemia
RXF 393 renal = system: RXF 393 renal
SF-268 CNS = system: SF-268 CNS
SF-295 CNS = system: SF-295 CNS
SF-539 CNS = system: SF-539 CNS
SK-MEL-2 melanoma = system: SK-MEL-2 melanoma
SK-MEL-28 melanoma = system: SK-MEL-28 melanoma
SK-MEL-5 melanoma = system: SK-MEL-5 melanoma
SK-OV-3 ovarian = system: SK-OV-3 ovarian
SN12C renal = system: SN12C renal
SNB-19 CNS = system: SNB-19 CNS
SNB-75 CNS = system: SNB-75 CNS
SR leukemia = system: SR leukemia
SW-620 colon = system: SW-620 colon
T-47D breast = system: T-47D breast
TK-10 renal = system: TK-10 renal
UACC-257 melanoma = system: UACC-257 melanoma
UACC-62 melanoma = system: UACC-62 melanoma
UO-31 renal = system: UO-31 renal

Measured: TGI

COc1cc2nn(-c3ccccc3)nc2c2nonc12
> 100 µM: all assays above
